Measurements from paper PMC10092844, “Inhibition profile of trifludimoxazin towards PPO2 target site mutations” (Pest Management Science, 2022).
Substitutions are numbered along the chain they refer to. Read-outs that look alike come from different tables or passages of the source.

Experiments:
PPO2 R128L ΔG210 = target: T1, PPO2 R128L ΔG210 (Amaranthus tuberculatus, UniProt Q0NZW9, DEL210-210/R128L); test: biochemical; type: biochemical
T1 sequence (Q0NZW9 with tags, fused parts or gaps R128L/DEL210-210): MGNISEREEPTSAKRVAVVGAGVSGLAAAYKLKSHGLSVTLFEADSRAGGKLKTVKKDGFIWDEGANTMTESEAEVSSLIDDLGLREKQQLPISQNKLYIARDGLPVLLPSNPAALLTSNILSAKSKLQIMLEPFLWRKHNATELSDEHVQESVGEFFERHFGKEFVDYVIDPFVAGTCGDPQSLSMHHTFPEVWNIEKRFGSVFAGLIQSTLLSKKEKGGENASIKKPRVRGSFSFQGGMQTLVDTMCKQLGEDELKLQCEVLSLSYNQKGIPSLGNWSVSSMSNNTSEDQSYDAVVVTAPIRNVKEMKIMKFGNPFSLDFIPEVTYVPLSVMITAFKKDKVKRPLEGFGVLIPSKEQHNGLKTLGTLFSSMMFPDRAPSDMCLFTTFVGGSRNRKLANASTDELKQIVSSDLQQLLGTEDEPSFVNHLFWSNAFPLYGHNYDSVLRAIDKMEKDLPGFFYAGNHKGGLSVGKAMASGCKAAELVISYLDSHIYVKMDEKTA

[1] = target: R128(X) ΔG210 double-mutant enzymes; type: biochemical, Amaranthus tuberculatus
PPO2 R128E ΔG210 = target: T2, PPO2 R128E ΔG210 (Amaranthus tuberculatus, UniProt Q0NZW9, DEL210/R128E); test: biochemical; type: biochemical
T2 sequence (Q0NZW9 with tags, fused parts or gaps R128E/DEL210): T1 sequence (Q0NZW9 with tags, fused parts or gaps R128L/DEL210-210) with L98E

PPO2 G399A = target: T3, PPO2 G399A (Amaranthus tuberculatus, UniProt Q0NZW9, G398A); test: biochemical; type: biochemical
T3 sequence (Q0NZW9 31-534 G398A): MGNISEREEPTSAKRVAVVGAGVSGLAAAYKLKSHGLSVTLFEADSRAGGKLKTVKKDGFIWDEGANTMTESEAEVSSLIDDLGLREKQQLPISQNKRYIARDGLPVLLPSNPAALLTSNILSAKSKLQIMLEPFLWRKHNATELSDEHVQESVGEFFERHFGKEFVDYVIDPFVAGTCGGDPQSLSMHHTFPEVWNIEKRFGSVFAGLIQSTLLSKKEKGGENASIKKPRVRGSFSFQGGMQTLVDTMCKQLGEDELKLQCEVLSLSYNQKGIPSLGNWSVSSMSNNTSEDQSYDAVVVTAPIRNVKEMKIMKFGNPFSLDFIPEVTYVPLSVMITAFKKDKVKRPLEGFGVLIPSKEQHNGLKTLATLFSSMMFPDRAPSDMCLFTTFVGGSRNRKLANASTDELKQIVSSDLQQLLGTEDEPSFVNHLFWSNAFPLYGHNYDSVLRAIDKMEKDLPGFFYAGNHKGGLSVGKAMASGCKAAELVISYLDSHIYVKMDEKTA

[2] = target: T4, PPO2 R128L ΔG210 in Escherichia coli hemG (Amaranthus tuberculatus, UniProt Q0NZW9, DEL210-210/R128L, cells depend on it); type: cell-based; conditions: read-out: IC50 (E. coli hemG growth)
T4 sequence (Q0NZW9 with tags, fused parts or gaps R128L/DEL210-210): T1 sequence (Q0NZW9 with tags, fused parts or gaps R128L/DEL210-210)

[3] = target: T5, PPO2 R128T ΔG210 in Escherichia coli hemG (Amaranthus tuberculatus, UniProt Q0NZW9, DEL210-210/R128T, cells depend on it); type: cell-based; conditions: read-out: IC50 (E. coli hemG growth)
T5 sequence (Q0NZW9 with tags, fused parts or gaps R128T/DEL210-210): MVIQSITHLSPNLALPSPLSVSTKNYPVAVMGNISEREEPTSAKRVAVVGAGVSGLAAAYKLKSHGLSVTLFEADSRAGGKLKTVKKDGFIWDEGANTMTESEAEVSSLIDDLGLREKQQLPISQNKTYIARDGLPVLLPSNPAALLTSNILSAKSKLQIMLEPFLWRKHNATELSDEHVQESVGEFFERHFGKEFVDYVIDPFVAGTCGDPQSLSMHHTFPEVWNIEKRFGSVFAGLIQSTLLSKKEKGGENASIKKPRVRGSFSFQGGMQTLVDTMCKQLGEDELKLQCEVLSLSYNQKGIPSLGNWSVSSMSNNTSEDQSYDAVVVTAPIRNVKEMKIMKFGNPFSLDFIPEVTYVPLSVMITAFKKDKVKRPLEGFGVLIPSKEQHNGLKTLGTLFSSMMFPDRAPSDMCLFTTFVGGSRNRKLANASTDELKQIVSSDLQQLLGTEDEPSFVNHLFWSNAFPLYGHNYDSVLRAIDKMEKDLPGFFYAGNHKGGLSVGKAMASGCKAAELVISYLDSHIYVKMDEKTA

[4] = target: T6, PPO2 R128M ΔG210 in Escherichia coli hemG (Amaranthus tuberculatus, UniProt Q0NZW9, DEL210-210/R128M, cells depend on it); type: cell-based; conditions: read-out: IC50 (E. coli hemG growth)
T6 sequence (Q0NZW9 with tags, fused parts or gaps R128M/DEL210-210): T1 sequence (Q0NZW9 with tags, fused parts or gaps R128L/DEL210-210) with L98M

[5] = read-out: IC50 (over R128(X) ΔG210 mutants)

For `CS(=O)(=O)NC(=O)c1cc(Oc2ccc(C(F)(F)F)cc2Cl)ccc1[N+](=O)[O-]` [Fomesafen, fomesafen], the IC50 (PPO2 R128L ΔG210) was > 10000 nM, the IC50 [1, 5] was < 10000 nM and the IC50 (PPO2 R128E ΔG210) was > 10000 nM. For the same compound, the IC50 (PPO2 G399A) was > 10000 nM.
For `CCOC(=O)C(C)OC(=O)c1cc(Oc2ccc(C(F)(F)F)cc2Cl)ccc1[N+](=O)[O-]` (stereo not shown) [Lactofen, lactofen], the IC50 (PPO2 R128L ΔG210) was 649 nM, the IC50 [2] was > 10000 nM and the IC50 ([1]; read-out: IC50 values) was > 10000 nM. For the same compound, the IC50 ([1]; read-out: IC50 values (range over variants)) was 100 to 1000 nM, the IC50 (PPO2 R128E ΔG210) was 649 nM and the IC50 [3] was > 10000 nM. For the same compound, the IC50 (PPO2 G399A) was 1580 nM and the IC50 [4] was > 10000 nM.
In the case of `CC(C)N(C)S(=O)(=O)NC(=O)c1cc(-n2c(=O)cc(C(F)(F)F)n(C)c2=O)c(F)cc1Cl` [Saflufenacil, saflufenacil], the IC50 (PPO2 R128L ΔG210) is reported as > 10000 nM, the IC50 [2] is reported as > 10000 nM and the IC50 [1, 5] is reported as < 10000 nM. For the same compound, the IC50 (PPO2 R128E ΔG210) was > 10000 nM, the IC50 [3] was > 10000 nM and the IC50 (PPO2 G399A) was 627 nM. The IC50 [4] was > 10000 nM.
`C#CCN1C(=O)C(F)(F)Oc2cc(F)c(-n3c(=O)n(C)c(=S)n(C)c3=O)cc21` [Trifludimoxazin, trifludimoxazin] was tested, and the IC50 (PPO2 R128L ΔG210) was 5.68 nM, the Resistance factor (PPO2 R128L ΔG210) was 23 and the IC50 [2] was 39.9 nM. The IC50 [1, 5] was 1 to 100 nM, the IC50 (PPO2 R128E ΔG210) was 8.61 nM and the Resistance factor (PPO2 R128E ΔG210) was 35. It also gave an IC50 [3] of 67.5 nM, an IC50 (PPO2 G399A) of 1.17 nM and an IC50 [4] of 67.4 nM.
